In PubChem BioAssay AID1918933 (Molecular Pharmacology Branch, DTP, NCI, 2023):

Test system: 186277-243-T-J2-PDC complex spheroid viability
Assay: Anticancer human tumor 186277-243-T-J2-PDC patient-derived colon adenocarcinoma cell line growth inhibition
Conditions: for IC50: curve of first compound; for viability, T/C: stronger effect = lower value
Outline: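 Drug combinations with the LSD1 inhibitor iadademstat tested on tumor cells co-cultured as spheroids with endothelial cells and mesenchymal stem cells. Concentrations descended in half-log increments from clinical Cmax or 10 microM.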

[1] = second compound 0.1 µM, first compound 0.0316 µM
[2] = second compound 0.1 µM, first compound 0.1 µM
[3] = second compound 0.1 µM, first compound 0.316 µM
[4] = second compound 0.1 µM, first compound 1 µM
[5] = second compound 0.316 µM, first compound 0.0316 µM
[6] = second compound 0.316 µM, first compound 0.1 µM
[7] = second compound 0.316 µM, first compound 0.316 µM
[8] = second compound 0.316 µM, first compound 1 µM
[9] = second compound 1 µM, first compound 0.0316 µM
[10] = second compound 1 µM, first compound 0.1 µM
[11] = second compound 1 µM, first compound 0.316 µM
[12] = second compound 1 µM, first compound 1 µM
[13] = second compound 3.16 µM, first compound 0.0316 µM
[14] = second compound 3.16 µM, first compound 0.1 µM
[15] = second compound 3.16 µM, first compound 0.316 µM
[16] = second compound 3.16 µM, first compound 1 µM
[17] = second compound 10 µM, first compound 0.0316 µM
[18] = second compound 10 µM, first compound 0.1 µM
[19] = second compound 10 µM, first compound 0.316 µM
[20] = second compound 10 µM, first compound 1 µM
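Note: 7 day exposure to compounds.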
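Throughout, for viability, T/C: 100% = DMSO vehicle control viability.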

| Compound | IC50 (second compound 0.1 µM) [nM] | IC50 (second compound 0.316 µM) [nM] | IC50 (second compound 1 µM) [nM] | IC50 (second compound 3.16 µM) [nM] | IC50 (second compound 10 µM) [nM] | viability, T/C [1] [%] | viability, T/C [2] [%] | viability, T/C [3] [%] | viability, T/C [4] [%] | viability, T/C [5] [%] | viability, T/C [6] [%] | viability, T/C [7] [%] | viability, T/C [8] [%] | viability, T/C [9] [%] | viability, T/C [10] [%] | viability, T/C [11] [%] | viability, T/C [12] [%] | viability, T/C [13] [%] | viability, T/C [14] [%] | viability, T/C [15] [%] | other results |
| --- | --- | --- | --- | --- | --- | --- | --- | --- | --- | --- | --- | --- | --- | --- | --- | --- | --- | --- | --- | --- | --- |
| CC1(C)CCC(CN2CCN(c3ccc(C(=O)NS(=O)(=O)c4ccc(NCC5CCOCC5)c([N+](=O)[O-])c4)c(Oc4cnc5[nH]ccc5c4)c3)CC2)=C(c2ccc(Cl)cc2)C1 + NC1CC1c1ccc(-c2cccc(O)c2)cc1 | 2230 | 2260 | 2240 | 2410 | 2150 | 106 | 101 | 117 | 99.1 | 98.2 | 97.4 | 108 | 98.8 | 102 | 106 | 98.5 | 91.3 | 106 | 101 | 107 | viability, T/C (second compound 0.1 µM, first compound 3.16 µM): 28.4%; viability, T/C (second compound 0.1 µM, first compound 10 µM): 0.17%; viability, T/C (second compound 0.316 µM, first compound 3.16 µM): 29.9%; viability, T/C (second compound 0.316 µM, first compound 10 µM): 0.15%; viability, T/C (second compound 1 µM, first compound 3.16 µM): 32.6%; viability, T/C (second compound 1 µM, first compound 10 µM): 0.14%; viability, T/C [16]: 94.4%; viability, T/C (second compound 3.16 µM, first compound 3.16 µM): 36.4%; viability, T/C (second compound 3.16 µM, first compound 10 µM): 0.15%; viability, T/C [17]: 107%; viability, T/C [18]: 107%; viability, T/C [19]: 101%; viability, T/C [20]: 99.7%; viability, T/C (second compound 10 µM, first compound 3.16 µM): 25%; viability, T/C (second compound 10 µM, first compound 10 µM): 0.2% |
| COc1cc(Nc2ncc3c(n2)-c2ccc(Cl)cc2C(c2c(F)cccc2OC)=NC3)ccc1C(=O)O + NC1CC1c1ccc(-c2cccc(O)c2)cc1 | > 1000 | > 1000 | > 1000 | > 1000 | > 1000 | 116 | 107 | 124 | 111 | 119 | 108 | 124 | 109 | 130 | 117 | 131 | 114 | 143 | 126 | 128 | viability, T/C (second compound 0.1 µM, first compound 0.00316 µM): 128%; viability, T/C (second compound 0.1 µM, first compound 0.01 µM): 115%; viability, T/C (second compound 0.316 µM, first compound 0.00316 µM): 133%; viability, T/C (second compound 0.316 µM, first compound 0.01 µM): 125%; viability, T/C (second compound 1 µM, first compound 0.00316 µM): 140%; viability, T/C (second compound 1 µM, first compound 0.01 µM): 132%; viability, T/C (second compound 3.16 µM, first compound 0.00316 µM): 155%; viability, T/C (second compound 3.16 µM, first compound 0.01 µM): 143%; viability, T/C [16]: 111%; viability, T/C (second compound 10 µM, first compound 0.00316 µM): 137%; viability, T/C (second compound 10 µM, first compound 0.01 µM): 139%; viability, T/C [17]: 130%; viability, T/C [18]: 123%; viability, T/C [19]: 120%; viability, T/C [20]: 89.8% |
